# Laboratory results from ChEMBL document CHEMBL1149655, “Non-steroidal glucocorticoid agonists: the discovery of aryl pyrazoles as A-ring mimetics” (Bioorg Med Chem Lett, 2007).
# “And” between values parts separate entries of the source, which are not always exact repeats. Equal entries are not always repeated.
# How the values were obtained:
# Glucocorticoid receptor [1] = biological target: T1, Glucocorticoid receptor (Homo sapiens, UniProt P04150); test: Agonist activity at glucocorticoid receptor in human A549 cells by MMTV transactivation assay; assay type: functional, cell-based
# T1 sequence (P04150 whole entry): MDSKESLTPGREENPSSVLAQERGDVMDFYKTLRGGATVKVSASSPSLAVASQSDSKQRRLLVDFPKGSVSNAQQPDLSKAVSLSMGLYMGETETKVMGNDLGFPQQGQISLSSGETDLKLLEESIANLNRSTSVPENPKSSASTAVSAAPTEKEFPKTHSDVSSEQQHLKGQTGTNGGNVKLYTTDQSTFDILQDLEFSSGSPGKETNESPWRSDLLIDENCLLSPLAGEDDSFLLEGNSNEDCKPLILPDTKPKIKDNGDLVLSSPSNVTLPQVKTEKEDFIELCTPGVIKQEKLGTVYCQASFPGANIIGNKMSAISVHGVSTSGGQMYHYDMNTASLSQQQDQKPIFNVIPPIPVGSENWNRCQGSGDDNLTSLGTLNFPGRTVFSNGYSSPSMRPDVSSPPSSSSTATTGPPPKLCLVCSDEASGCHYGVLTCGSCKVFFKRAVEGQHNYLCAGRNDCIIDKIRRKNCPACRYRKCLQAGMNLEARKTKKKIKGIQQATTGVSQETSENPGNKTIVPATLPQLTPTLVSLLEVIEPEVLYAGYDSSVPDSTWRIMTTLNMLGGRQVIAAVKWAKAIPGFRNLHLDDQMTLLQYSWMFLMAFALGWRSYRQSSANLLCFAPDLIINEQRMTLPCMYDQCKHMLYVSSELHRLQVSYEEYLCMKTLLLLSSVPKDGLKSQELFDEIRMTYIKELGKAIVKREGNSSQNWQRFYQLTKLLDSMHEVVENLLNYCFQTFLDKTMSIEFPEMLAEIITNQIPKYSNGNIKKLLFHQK
# Glucocorticoid receptor [2] = biological target: T1, Glucocorticoid receptor
# Description: (§1) Binding affinity to glucocorticoid receptor
# Glucocorticoid receptor [3] = biological target: T1, Glucocorticoid receptor; remark: listed apart in the source
# Glucocorticoid receptor [4] = biological target: T1, Glucocorticoid receptor; remark: listed apart in the source
# Description: Agonist activity at glucocorticoid receptor in human A549 cells by NF-kappaB transrepression assay
# Progesterone receptor = biological target: T2, Progesterone receptor (Homo sapiens, UniProt P06401); test: Binding affinity to progesterone receptor
# T2 sequence (P06401 whole entry): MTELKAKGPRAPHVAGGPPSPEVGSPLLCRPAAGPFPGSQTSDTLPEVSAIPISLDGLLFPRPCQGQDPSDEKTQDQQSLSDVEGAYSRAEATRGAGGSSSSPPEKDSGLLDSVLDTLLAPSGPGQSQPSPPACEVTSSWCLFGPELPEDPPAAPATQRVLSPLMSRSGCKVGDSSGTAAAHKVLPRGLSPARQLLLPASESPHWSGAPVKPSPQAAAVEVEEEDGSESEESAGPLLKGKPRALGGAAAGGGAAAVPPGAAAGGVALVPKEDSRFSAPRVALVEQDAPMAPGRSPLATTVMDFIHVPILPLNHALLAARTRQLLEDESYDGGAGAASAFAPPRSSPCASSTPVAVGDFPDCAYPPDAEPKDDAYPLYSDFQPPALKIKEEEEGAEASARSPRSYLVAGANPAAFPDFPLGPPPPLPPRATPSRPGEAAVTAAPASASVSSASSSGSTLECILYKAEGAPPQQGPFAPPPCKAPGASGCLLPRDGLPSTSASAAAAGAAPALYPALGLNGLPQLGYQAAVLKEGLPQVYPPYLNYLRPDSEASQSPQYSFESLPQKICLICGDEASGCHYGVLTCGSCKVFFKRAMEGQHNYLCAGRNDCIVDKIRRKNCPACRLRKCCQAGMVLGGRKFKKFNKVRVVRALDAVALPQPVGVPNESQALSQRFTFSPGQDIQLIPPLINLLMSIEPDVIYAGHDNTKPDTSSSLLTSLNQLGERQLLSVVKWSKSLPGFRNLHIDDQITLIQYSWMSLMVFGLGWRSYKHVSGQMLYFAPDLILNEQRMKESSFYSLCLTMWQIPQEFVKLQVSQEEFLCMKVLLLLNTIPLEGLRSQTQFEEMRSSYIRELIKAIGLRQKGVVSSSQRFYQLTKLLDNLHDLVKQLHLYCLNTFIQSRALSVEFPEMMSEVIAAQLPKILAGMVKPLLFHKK
# Androgen receptor = biological target: T3, Androgen receptor (Homo sapiens, UniProt P10275); test: Binding affinity to androgen receptor
# T3 sequence (P10275 whole entry): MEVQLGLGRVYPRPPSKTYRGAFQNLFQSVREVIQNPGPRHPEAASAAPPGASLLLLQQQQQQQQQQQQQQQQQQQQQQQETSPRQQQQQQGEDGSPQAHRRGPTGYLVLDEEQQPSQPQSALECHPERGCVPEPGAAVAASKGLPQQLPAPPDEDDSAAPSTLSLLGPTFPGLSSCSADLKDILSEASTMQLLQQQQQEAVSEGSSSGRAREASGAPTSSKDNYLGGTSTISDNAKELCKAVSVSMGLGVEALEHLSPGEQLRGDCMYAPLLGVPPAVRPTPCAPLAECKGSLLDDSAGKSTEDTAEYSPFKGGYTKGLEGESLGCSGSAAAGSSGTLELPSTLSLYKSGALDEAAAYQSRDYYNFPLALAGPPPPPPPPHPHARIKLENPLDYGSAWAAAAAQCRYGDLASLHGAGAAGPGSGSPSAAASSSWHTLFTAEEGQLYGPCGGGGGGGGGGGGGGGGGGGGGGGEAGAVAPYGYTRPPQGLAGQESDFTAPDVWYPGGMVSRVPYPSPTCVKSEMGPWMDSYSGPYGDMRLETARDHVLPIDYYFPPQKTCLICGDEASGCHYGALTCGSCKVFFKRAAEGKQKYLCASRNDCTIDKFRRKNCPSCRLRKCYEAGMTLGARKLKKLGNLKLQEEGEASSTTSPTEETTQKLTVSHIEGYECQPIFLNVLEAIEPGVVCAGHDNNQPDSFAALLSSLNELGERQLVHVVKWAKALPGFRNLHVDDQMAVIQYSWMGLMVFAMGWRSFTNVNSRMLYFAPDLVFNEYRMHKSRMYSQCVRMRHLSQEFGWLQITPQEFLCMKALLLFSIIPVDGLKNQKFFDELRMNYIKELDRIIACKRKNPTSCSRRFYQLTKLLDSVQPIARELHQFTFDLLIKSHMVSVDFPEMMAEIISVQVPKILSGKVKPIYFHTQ
# Glucocorticoid receptor [5] = biological target: T1, Glucocorticoid receptor; remark: listed apart in the source
# Description: as §1
Compound,EC50 (Glucocorticoid receptor [1]),IC50 (Glucocorticoid receptor [2]),IC50 (Glucocorticoid receptor [3]),IC50 (Glucocorticoid receptor [4]),IC50 (Progesterone receptor),IC50 (Androgen receptor),Log IC50 (Glucocorticoid receptor [5])
Cc1c(S(=O)(=O)NCC(O)(CC2(C)CCCc3ccccc32)C(F)(F)F)cnn1-c1ccccc1 (stereo in doubt; 17D2E2),> 1000 nM,30.2 nM,309 nM,> 1000 nM,–,–,–
COc1ccc(F)cc1C(C)(C)C[C@](O)(CNC(=O)c1cnn(-c2ccc(F)cc2)c1N)C(F)(F)F,–,6.76 nM and 5.5 nM,> 1000 nM,–,> 1000 nM,> 1000 nM,–
Nc1c(C(=O)NCC(O)(CC2(C3CCCC3)CCCc3ccccc32)C(F)(F)F)cnn1-c1ccc(F)cc1F (stereo in doubt; 23D1E2),151 nM,20.9 nM,–,30.2 nM,–,–,–
CCn1nc(C)c(Br)c1C(=O)NCC(O)(CC1(C)CCCc2ccccc21)C(F)(F)F (configuration not stated),–,40.7 nM,–,> 1000 nM,–,–,–
Cc1c(S(=O)(=O)NCC(O)(CC2(C)CCCc3ccccc32)C(F)(F)F)cnn1-c1ccccc1 (stereo in doubt; 17D1),–,158 nM,–,–,–,–,–
CCC1(CC(O)(CNC(=O)c2cnn(-c3ccccc3)c2N)C(F)(F)F)CCCc2ccccc21 (configuration not stated),5.62 nM,7.41 nM,–,1.66 nM,–,–,–
Cc1c(S(=O)(=O)NCC(O)(CC2(C)CCCc3ccccc32)C(F)(F)F)cnn1-c1ccccc1 (stereo in doubt; 17D2E1),–,51.3 nM,–,–,–,–,–
CCC1(CC(O)(CNC(=O)c2cnn(-c3ccc(F)cc3F)c2N)C(F)(F)F)CCCc2ccccc21 (stereo in doubt; 22D1E1),14.5 nM,–,> 1000 nM,6.46 nM,–,–,-8.33
Cc1c(S(=O)(=O)NCC(O)(CC2(C)CCCc3ccccc32)C(F)(F)F)cnn1-c1ccccc1 (stereo in doubt; 17D2),–,34.7 nM,–,–,–,–,–

# Second part, the molecule after the results:
EC50 (Glucocorticoid receptor [1]),IC50 (Glucocorticoid receptor [2]),IC50 (Glucocorticoid receptor [3]),IC50 (Glucocorticoid receptor [4]),IC50 (Progesterone receptor),IC50 (Androgen receptor),Log IC50 (Glucocorticoid receptor [5]),Compound
95.5 nM,9.55 nM,275 nM,8.51 nM,–,–,–,Nc1c(C(=O)NCC(O)(CC2(C3CCCC3)CCCc3ccccc32)C(F)(F)F)cnn1-c1ccc(F)cc1F (stereo in doubt; 23D1E1)
18.2 nM,5.13 nM,–,5.89 nM,–,–,–,CC1(CC(O)(CNC(=O)c2cnn(-c3ccccc3)c2N)C(F)(F)F)CCCc2ccccc21 (stereo in doubt; 19D1E2)
> 1000 nM,9.33 nM,933 nM,49 nM,–,–,–,Cc1c(C(=O)NCC(O)(CC2(C)CCCc3ccccc32)C(F)(F)F)cnn1-c1ccccc1 (stereo in doubt; 18D1E1)
15.1 nM,4.27 nM,–,3.72 nM,> 1000 nM,> 1000 nM,–,Nc1c(C(=O)NCC(O)(CC2(c3cc(F)ccc3Cl)CCC2)C(F)(F)F)cnn1-c1ccccc1 (stereo in doubt; 24E1)
182 nM,5.75 nM,–,17 nM,–,–,–,CC1(CC(O)(CNC(=O)c2cnn(-c3ccccc3)c2N)C(F)(F)F)CCCc2ccccc21 (stereo in doubt; 19D1E1)
10.7 nM,9.77 nM,–,3.02 nM,–,–,–,CCC1(CC(O)(CNC(=O)c2cnn(-c3ccc(F)cc3)c2N)C(F)(F)F)CCCc2ccccc21 (stereo in doubt; 21D1E2)
7.76 nM,20 nM,–,3.63 nM,–,–,–,CCC1(CC(O)(CNC(=O)c2cnn(-c3ccc(F)cc3)c2N)C(F)(F)F)CCCc2ccccc21 (stereo in doubt; 21D1E1)
12.3 nM,4.68 nM,–,4.47 nM,–,–,–,CCC1(CC(O)(CNC(=O)c2cnn(-c3ccc(F)cc3F)c2N)C(F)(F)F)CCCc2ccccc21 (stereo in doubt; 22D1E2)
17.4 nM,4.79 nM,–,13.2 nM,–,–,–,Nc1c(C(=O)NCC(O)(CC2(c3cc(F)ccc3Cl)CCC2)C(F)(F)F)cnn1-c1ccccc1 (stereo in doubt; 24E2)
–,7.59 nM,603 nM,83.2 nM,–,–,–,Cc1c(C(=O)NCC(O)(CC2(C)CCCc3ccccc32)C(F)(F)F)cnn1-c1ccccc1 (stereo in doubt; 18D1)
